Experiments:
[1] = biological target: T1, Recombinant human LTC4 synthase (Homo sapiens, UniProt Q16873); test: In vitro assay Method A: LTC4 synthase, LTA4 methyl ester to LTC4 methyl ester, HPLC; type: biochemical; settings: total concentration of title compound 10 μM, read-out: % inh. of LTC4 synthase
T1 construct: made in house; host or cells: Pichia pastoris ('Piccia pastoralis' [sic])
T1 sequence (Q16873 1-150): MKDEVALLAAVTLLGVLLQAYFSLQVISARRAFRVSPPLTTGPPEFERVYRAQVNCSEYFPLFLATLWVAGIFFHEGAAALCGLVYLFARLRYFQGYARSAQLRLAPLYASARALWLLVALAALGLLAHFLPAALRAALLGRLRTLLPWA
Procedure: In the assay, LTC4 synthase catalyses the reaction where the substrate LTA4 methyl ester is converted to the corresponding LTC4 methyl ester. Recombinant human LTC4 synthase is expressed in Piccia pastoralis and the purified enzyme is dissolved in 25 mM Tris-buffer pH 7.8 and stored at −20° C. The assay is performed in phosphate buffered saline (PBS) pH 7.4, supplemented with 5 mM glutathione (GSH). The reaction is terminated by addition of MeCN/MeOH/acetic acid (50/50/1). The assay is performed at rt in 96-well plates. Analysis of the formed LTC4 methyl ester is performed with reversed phase HPLC (Waters 2795 utilizing an Onyx Monolithic C18 column). The mobile phase consists of MeCN/MeOH/H2O (32.5/30/37.5) with 1% acetic acid, pH adjusted with NH3 to 5.6, and absorbance measured at 280 nm with a Waters 2487 UV-detector.
(§1) The following is added chronologically to each well: • 1. 50 μL assay buffer, PBS with 5 mM GSH. • 2. 0.5 μL inhibitor in DMSO. • 3. 2 μL LTC4 synthase in PBS. The total protein concentration in this solution is 0.025 mg/mL. Incubation of the plate at rt for 10 min. • 4. 1-1.5 μL LTA4 methyl ester (final conc. 10 μM). Incubation of the plate at rt for 1 min. • 5. 50 μL stop solution. 80 μL of the incubation mixture is analysed with HPLC.

[2] = biological target: T1, Recombinant human LTC4 synthase; test: In vitro assay Method B: LTC4 synthase, LTA4 to LTC4, HTRF detection; type: biochemical; settings: total concentration of title compound 10 μM, read-out: % inh. of LTC4 synthase
Procedure: In the assay, LTC4 synthase catalyses the reaction where the substrate LTA4 is converted to LTC4. Recombinant human LTC4 synthase is expressed in Piccia pastoralis and the purified enzyme is dissolved in 25 mM Tris-buffer pH 7.8 and stored at −20° C. The assay is performed in phosphate buffered saline (PBS) pH 7.4, supplemented with 5 mM glutathione (GSH). The assay is performed at rt in 384-well plates. Analysis of the formed LTC4 is performed using costume made homogenous time-resolved fluorescence (HTRF) detection (Cisbio).
as §1, with “2 μl” for “2 μL”, “0.025 mg/ml.” for “0.025 mg/mL.”, “LTA4” for “LTA4 methyl ester”, “conc. 2.5” for “conc. 10”, “min. 10” for “min. • 5. 50 μL stop solution. 80”, “analysed using HTRF detection.” for “analysed with HPLC.”

[3] = system: cysteinyl leukotrienes concentration in the peritoneal lavage; test: Mouse peritoneal inflammation model (zymosan ip), cysteinyl leukotrienes in peritoneal lavage by EIA; type: in vivo, Male BALB/c mice; settings: 0.5 h, 5 min before zymosan, lavage 30 min after zymosan, read-out: %-inhibition of cysteinyl leukotrienes concentration vs vehicle treated mice; for inhibition in vivo at 3 mg/kg: 3 mg/kg ip; for inhibition in vivo at 10 mg/kg: 10 mg/kg ip
Procedure: The in vivo efficacy of leukotriene biosynthesis inhibitors was assed by using a model of peritoneal inflammation. Male BALB/c mice (weighing 20-25 grams) received an intraperitoneal injection (ip) of 0.5 ml zymosan dissolved in phosphate buffer saline (PBS) (pH 7.5, 1 mg/mL). 5 Minutes before the zymosan injection compounds (1-10 mg/kg) or vehicle were administered ip (10 mL/kg). 30 min after the zymosan injection the mice were anaesthetized and the peritoneal cavity was flushed with 4 mL PBS. The peritoneal lavage was centrifuged at 6000 rcf for 5 minutes and the cysteinyl leukotrienes concentration in the supernatant was determined by EIA. The cysteinyl leukotrienes concentration in the peritoneal lavage from compound treated mice was compared to vehicle treated mice and the % inhibition was calculated.

Compound | inhibition at 10 µM [1] [%] | inhibition at 10 µM [2] [%] | inhibition in vivo at 3 mg/kg [3] [%] | inhibition in vivo at 10 mg/kg [3] [%]
O=C(O)Cc1c(C(=O)O)c2cc(Oc3ccc(OC(F)(F)F)cc3)ccc2n1-c1ccc(OCc2ccccc2)cc1 [Example 2:1, 1-(4-Benzyloxyphenyl)-2-carboxymethyl-5-(4-trifluoromethoxyphenoxy)indole-3-carboxylic acid] | 89 |  |  | 
CC(C)Oc1ccc(Oc2ccc3c(c2)c(C(=O)O)c(CC(=O)O)n3-c2ccc(OCc3ccc4ccccc4n3)cc2)cc1 [1:10, 2-Carboxymethyl-1-5-(4-isopropoxyphenoxy)-[4-(2-quinolinylmethoxy)-phenyl]indole-3-carboxylic acid] | 98 |  |  | 
CC(C)Oc1ccc(Oc2ccc3c(c2)c(C(=O)O)c(CC(=O)O)n3-c2ccc(OCc3ccccn3)cc2)cc1 [Example 1:9, 2-Carboxymethyl-1-5-(4-isopropoxyphenoxy)-[4-(2-pyridinylmethoxy)-phenyl]indole-3-carboxylic acid] |  | 98 | 97 | 
O=C(O)Cc1c(C(=O)O)c2cc(Oc3ccc(OC(F)(F)F)cc3)ccc2n1-c1ccc(OC2CCCCC2)cc1 [Example 4:5, 2-Carboxymethyl-1-(4-cyclohexyloxyphenyl)-5-(4-trifluoromethoxyphenoxy)indole-3-carboxylic acid] |  | 99 | 97 | 
CC(C)Oc1ccc(Oc2ccc3c(c2)c(C(=O)O)c(CC(=O)O)n3-c2ccc(OC3CCCC3)cc2)cc1 [Example 4:1, 2-Carboxymethyl-1-(4-cyclopentyloxyphenyl)-5-(4-isopropoxyphenoxy)-indole-3-carboxylic acid] |  | 98 |  | 96
COc1ccc(COc2ccc(-n3c(CC(=O)O)c(C(=O)O)c4cc(Oc5ccc(OC(C)C)cc5)ccc43)cc2)cc1 [Example 1:5, 2-Carboxymethyl-1-5-(4-isopropoxyphenoxy)-[4-(4-methoxybenzyloxy)-phenyl]indole-3-carboxylic acid] |  | 97 |  | 92
